Experimental data: patent US20110251238A1, “PPAR AGONIST COMPOSITIONS AND METHODS OF USE” (BIOPHARMED, priority 2008, published 2011)
Values after ≈ are worked out from the molar mass of the structure shown. Each block holds one compound with its values, some of them ahead of it.

Legend:
[1] = tested on: U373 (human glioblastoma-astrocytoma); assay: Growth inhibition, MTT colorimetric assay, U373; format: cell-based; conditions: Homo sapiens, U373 MG, 72 h; glioma; 3 days with drug; means of six values; unit inferred; read-out: IC50 U373
Method: (§1) Compounds that met the criteria for activity on KB3 cells were further tested for drug growth inhibitory activity in 5 carcinoma, 6 glioma and 3 melanoma cell lines, shown in Table 4. A549 (human lung adenocarcinoma epithelial), BxPC3 (pancreatic cancer), LoVo (colon cancer), MCF-7 (epithelial breast cancer), PC3 (human prostate cancer), Hs683 (human glioma), T98G (glioblastoma), U373 (human glioblastoma-astrocytoma), U138 MG (human glioma), epithelial-like), SKMEL28 (human melanoma), B16-F10 (mouse melanoma) and RhTP (rhabdomyosarcoma) cell lines were cultured in presence of the drugs for 3 days. The cytotoxic activity is expressed as (IC50). Inhibition of cell proliferation measured by the MTT colorimetric assay. The values reported in Table 4 are means of six distinct values. The standard errors are <5% as compared to the mean values.

[2] = tested on: RhTP (rhabdomyosarcoma); assay: Growth inhibition, MTT colorimetric assay, RhTp; format: cell-based; conditions: 72 h; 3 days with drug; means of six values; unit inferred; read-out: IC50 RhTp
Method: as §1

[3] = tested on: Host; assay: Growth inhibition, MTT colorimetric assay, Host; format: cell-based; conditions: 72 h; 3 days with drug; means of six values; unit inferred; read-out: IC50 Host
Method: as §1

[4] = tested on: B16-F10 (mouse melanoma); assay: Growth inhibition, MTT colorimetric assay, B16F10; format: cell-based; conditions: Mus musculus, B16-F10, 72 h; melanoma; 3 days with drug; means of six values; unit inferred; read-out: IC50 B16F10
Method: as §1

[5] = tested on: caspases 8; assay: Caspases 8 activation in HL60 cells (IEDT reagent); format: cell-based, human; conditions: 48 hours, 1 μM, 0.1 μM and 0.01 μM
Source text: (§2) 7223, using standard commercially available diagnostic kits (Calbiochem, USA). Assay reagents used were DEVD for caspases 3/7, […] for caspases 8, and LEHD for caspases 9. Moreover, colchicine was used as reference compound that induces this activity of caspases.

[6] = tested on: caspases 3/7; assay: Caspases 3/7 activation in HL60 cells (DEVD reagent); format: cell-based, human; conditions: 48 hours
Source text: as §2

[7] = tested on: HT-22, an immortalized mouse hippocampal cell line; assay: Neuroprotection of HT-22 cells against toxic insults (calcein viability assay); format: cell-based
Method: It is known (P. Aoun, 2003 Eur. J. Pharm. 472:65-71) that Peroxisome proliferator-activated receptors (PPARs) are involved in regulating many metabolic and inflammatory processes. The present invention explores the role of PPAR ligands in protecting neuronal cultures from toxic insults. For that purpose, the new PPAR agonists described in Example 1 were screened for their potential role as neuroprotective compounds. Experiments were performed using HT-22, an immortalized mouse hippocampal cell line, and SK-N-SH, a human neuroblastoma cell line. HT-22 was selected because it expresses PPARγ receptors. Cell viability against glutamate, hydrogen peroxide (H2O2), and serum deprivation insults was determined using a calcein assay. […] Additionally, compounds were protective even when administered simultaneously with glutamate, or for up to 8 h postglutamate insult.
HT-22, an immortalized mouse hippocampal cell line, and SK-N-SH, a human neuroblastoma cell line, were used. HT-22 cells were obtained from David Schubert (Salk Institute, San Diego, Calif.). The HT-22 line was originally selected from HT-4 cells based on glutamate sensitivity. SK-N-SH cells were obtained from ATCC (Manassas, Va.). HT-22 and SK-N-SH cells were grown to confluency in Dulbecco's modified essential medium (DMEM) and RPMI-1640 media, respectively, and supplemented with 10% charcoal/dextran-treated fetal bovine serum (FBS) and […] gentamicin at 37° C. under 95% air/5% CO2. HT-22 cells were plated at a density of 50,000 cells/ml (5000 cells/well), and SK-N-SH cells were plated at a density of 120,000-150,000 cells/ml (12,000-15,000 cells/well) in 96-well plates. In most studies, wells were pretreated with PPAR ligands over a wide dose range at various times prior to being subjected to either glutamate, hydrogen peroxide, or serum deprivation insults. In some studies, the insults were applied prior to the addition of the PPAR ligand.
The following analogues were tested on the HT22 cell line for their neuroprotective effect against glutamate insult and for their anti-inflammatory activity on relevant, models including HT22 cell line.

[8] = tested on: U138 MG (human glioma); assay: Growth inhibition, MTT colorimetric assay, U138; format: cell-based; conditions: Homo sapiens, U138-MG, 72 h; glioma; 3 days with drug; means of six values; unit inferred; read-out: IC50 U138
Method: as §1

[9] = tested on: SKMEL28 (human melanoma); assay: Growth inhibition, MTT colorimetric assay, SKMEL-28; format: cell-based; conditions: Homo sapiens, SK-MEL-28, 72 h; melanoma; 3 days with drug; means of six values; unit inferred; read-out: IC50 SKMEL-28
Method: as §1

[10] = tested on: KaKa; assay: Growth inhibition, MTT colorimetric assay, KaKa; format: cell-based; conditions: 72 h; 3 days with drug; means of six values; unit inferred; read-out: IC50 KaKa
Method: as §1

[11] = tested on: KB3 (epitheloid lung cancer) cell lines; assay: Cell growth inhibition (cytotoxicity), MTS assay, KB3 cell line; format: cell-based; conditions: KB3; Table 3A; MTS assay, triplicate; read-out: KB3 IC50
Method: Cell growth inhibition was determined by the MTS assay; the number of viable cells were proportional to the extent of formazan production in the presence or absence of drugs. […]

[12] = tested on: bloodstream forms of T. brucei and T. congolense; assay: Trypanocidal activity in vitro, Alamar Blue assay; format: cell-based, Trypanosoma brucei and T. congolense; conditions: 48 h total incubation
Summary of the method: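 Bloodstream-form trypanosomes exposed to compounds in H2O for 24 h, then Alamar Blue added for a further 24 h (48 h total). Absorbance read at 550 nm with 630 nm reference; duplicate wells, three repeats. HL-60 cytotoxicity run alongside: 43 h plus 5 h dye.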

[13] = tested on: GL19; assay: Growth inhibition, MTT colorimetric assay, GL19; format: cell-based; conditions: GL19, 72 h; 3 days with drug; means of six values; unit inferred; read-out: IC50 GL19
Method: as §1

[14] = tested on: caspases 9; assay: Caspases 9 activation in HL60 cells (LEHD reagent); format: cell-based, human; conditions: 48 hours, 1 μM, 0.1 μM and 0.01 μM
Source text: as §2

[15] = tested on: bloodstream forms of T. congolense STIB910; conditions: T. congolense STIB910, identical experimental conditions, Merschjohann et al. (2001); cited from earlier work
[16] = tested on: bloodstream forms of T. brucei 427-221a; conditions: identical experimental conditions, Merschjohann et al. (2001); cited from earlier work

IC50 [1]: 96 nM
IC50 [2]: 84 nM
IC50 [4]: 88 nM
IC50 [8]: 81 nM
IC50 [9]: 4780 nM
SMILES: Cc1ccc(CN(Cc2ccc(O)c3ncccc23)Cc2ccc(O)c3ncccc23)cc1 [BPM19,107, 5,5′-(4-(methyl)benzylazanediyl)bis(methylene)diquinolin-8-ol]
IC50 [3]: 2460 nM
activation of caspases 8 [5]: no effect
activation of caspases 3/7 ([6]; 0.01 μM): neither BPM18,708 nor BPM19,107 has an effect
activation of caspases 3/7 ([6]; 0.1 μM): strong effect
activation of caspases 3/7 ([6]; 1 μM): strong effect
neuroprotection from H2O2 insult [7]: dose-dependent neuroprotection
neuroprotection from glutamate insult [7]: dose-dependent neuroprotection
IC50 [10]: 710 nM
IC50 [11]: 3 nM
GI50 ([12]; 50% growth inhibition, read-out: GI50): 310 ± 10 nM
MIC ([12]; lowest concentration at which all cells were killed, read-out: MIC): 1 µM (≈ 0.436 µg/mL)
IC50 [13]: 1030 nM
activation of caspases 9 [14]: no effect

SMILES: N=C(N)c1ccc(N=NNc2ccc(C(=N)N)cc2)cc1 [diminazene aceturate]
IC50 [15]: 500 nM

SMILES: Cc1ccc(C(=O)Nc2ccc(S(=O)(=O)O)c3cc(S(=O)(=O)O)cc(S(=O)(=O)O)c23)cc1NC(=O)c1cccc(NC(=O)Nc2cccc(C(=O)Nc3cc(C(=O)Nc4ccc(S(=O)(=O)O)c5cc(S(=O)(=O)O)cc(S(=O)(=O)O)c45)ccc3C)c2)c1 [suramin]
IC50 [16]: 400 nM
